From patent US10752624B2, “Kinase inhibitors” (Origenis GmbH, priority 2012, dated 2020)

Experiments:
LRRK2 = LRRK2 (Homo sapiens, UniProt Q5S007); test: LRRK2-LRRK2 G2019S-Assay (LanthaScreen Eu Kinase Binding Assay); details: 5 nM LRRK2, 10 nM tracer 236, 2 nM EU-Anti-GST antibody, 1 h at RT; read-out: LRRK2 Activities: IC50
Method in brief: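 In a TR-FRET tracer displacement assay, LRRK2 or its mutants at 5 nM were mixed with 2 nM Eu-anti-GST antibody and 10 nM tracer 236 in kinase buffer A for 1 h at RT. The 665/615 nm emission ratio was plotted against inhibitor concentration, and IC50 came from a variable-slope sigmoidal fit.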

SYK kinase = biological target: T1, SYK kinase (Homo sapiens, UniProt P43405); test: SYK Assay (OMNIA Kinase Assay, SOX peptide fluorescence); assay type: biochemical; details: 1 mM ATP, 10 μM Omnia Peptide Substrate Tyr 7, 30° C., readings for 30 minutes; read-out: SYK Activities: IC50
T1 construct: purchased Invitrogen, Carlsbad
Experimental: In the assay OMNIA® KINASE ASSAY by Invitrogen Corporation (Carlsbad) the effect of invention of a compound on the phosphorylation is determined by measurement of fluorescence intensity of a chelation-enhanced fluorophore called SOX. Upon phosphorylation of the peptide by the kinase of interest, Mg2+ is chelated to form a bridge between the SOX moiety and the phosphate group that is transferred to the specific tyrosine on the peptide. The fluorescence intensity is directly proportional to the amount of peptide phosphorylation.
To the wells of an 384 well small volume plate (Greiner, Frickenhausen) are added (i) the compound under test in 5% DMSO/distilled water (2 μl), (ii) 16 μl of the master mix containing ATP, DTT, Kinase Reaction Buffer, Omina Peptide Substrate Tyr 7 resulting in a final concentration of 1 mM ATP, 0.2 mM DTT and 10 μM Peptide Substrate.
The Master Mix and the assay plate was incubated to reaction temperature before the measurement (30° C.). The reaction was started with addition of (iii) 2 μl 4 μg/ml SYK kinase (Invitrogen, Carlsbad). During measurement fluorescence intensity readings were collected using a TECAN M1000 at a wavelength of λex 360/λem 485 nm every 30 s for 30 minutes. The reaction velocity was plotted versus the inhibitor concentration to determine the IC50 using XLFit 5.0 (IDBS, Guildford) to fit to a sigmoidal dose response curve.

LRRK2, sequence (Q5S007 970-2527 limits assumed): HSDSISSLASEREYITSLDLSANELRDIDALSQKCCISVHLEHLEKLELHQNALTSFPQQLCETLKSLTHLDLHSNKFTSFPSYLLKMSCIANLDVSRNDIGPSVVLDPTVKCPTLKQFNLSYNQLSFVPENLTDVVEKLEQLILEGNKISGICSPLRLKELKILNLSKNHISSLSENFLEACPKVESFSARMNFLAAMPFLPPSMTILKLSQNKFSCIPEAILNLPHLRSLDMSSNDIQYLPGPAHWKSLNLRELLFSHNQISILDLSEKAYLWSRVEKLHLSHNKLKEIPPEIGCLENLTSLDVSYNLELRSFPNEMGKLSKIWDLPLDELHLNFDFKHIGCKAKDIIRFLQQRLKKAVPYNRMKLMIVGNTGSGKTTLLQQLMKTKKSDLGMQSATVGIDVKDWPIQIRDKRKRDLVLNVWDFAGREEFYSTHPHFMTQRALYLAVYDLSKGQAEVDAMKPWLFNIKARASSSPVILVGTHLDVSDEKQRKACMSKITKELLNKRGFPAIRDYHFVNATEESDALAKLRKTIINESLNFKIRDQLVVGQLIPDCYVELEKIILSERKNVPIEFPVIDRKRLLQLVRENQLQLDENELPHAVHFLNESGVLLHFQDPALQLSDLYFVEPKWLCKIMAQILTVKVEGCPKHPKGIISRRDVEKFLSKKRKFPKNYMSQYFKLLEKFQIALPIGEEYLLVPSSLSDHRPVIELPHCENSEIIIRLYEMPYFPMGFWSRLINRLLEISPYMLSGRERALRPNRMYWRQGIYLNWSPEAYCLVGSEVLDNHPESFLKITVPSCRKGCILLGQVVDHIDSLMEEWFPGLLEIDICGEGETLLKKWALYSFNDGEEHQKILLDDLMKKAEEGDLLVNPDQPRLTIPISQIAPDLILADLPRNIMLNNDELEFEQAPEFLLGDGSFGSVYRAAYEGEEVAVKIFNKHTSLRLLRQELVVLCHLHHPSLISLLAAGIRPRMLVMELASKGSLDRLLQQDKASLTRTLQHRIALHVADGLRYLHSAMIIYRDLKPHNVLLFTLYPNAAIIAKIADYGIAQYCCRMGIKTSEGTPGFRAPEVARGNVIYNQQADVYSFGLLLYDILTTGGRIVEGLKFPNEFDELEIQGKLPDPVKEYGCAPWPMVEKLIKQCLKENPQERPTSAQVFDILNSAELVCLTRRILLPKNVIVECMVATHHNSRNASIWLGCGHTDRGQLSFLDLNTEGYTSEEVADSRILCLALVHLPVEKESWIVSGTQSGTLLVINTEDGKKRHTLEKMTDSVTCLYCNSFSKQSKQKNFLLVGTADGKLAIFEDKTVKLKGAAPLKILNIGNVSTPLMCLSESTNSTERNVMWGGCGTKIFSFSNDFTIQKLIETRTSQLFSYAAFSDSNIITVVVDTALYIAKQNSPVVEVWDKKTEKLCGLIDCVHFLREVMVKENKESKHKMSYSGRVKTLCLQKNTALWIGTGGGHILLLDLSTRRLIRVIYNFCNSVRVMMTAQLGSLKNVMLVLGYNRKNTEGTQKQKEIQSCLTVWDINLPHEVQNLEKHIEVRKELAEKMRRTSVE

SMILES | IC50 (LRRK2) [nM] | IC50 (SYK kinase) [nM]
CN1CCN(C2CCN(c3ccc(Nc4nc5cccc(F)c5c5cn[nH]c45)cc3)CC2)CC1 [Example 1, 9-fluoro-N-(4-(4-(4-methylpiperazin-1-yl)piperidin-1-yl)phenyl)-3H-pyrazolo[3,4-c]quinolin-4-amine] | 10 to 100 | 100 to 1000
COc1ccc2nc(Nc3ccc(N4CCC(N5CCN(C)CC5)CC4)cc3)c3n[nH]cc3c2c1 [Example 3, 8-methoxy-N-(4-(4-(4-methylpiperazin-1-yl)piperidin-1-yl)phenyl)-2H-pyrazolo[3,4-c]quinolin-4-amine] | 10 to 100 | 100 to 1000
COc1ccc2nc(Nc3ccc(C(=O)N4CCC(N5CCN(C)CC5)CC4)cc3)c3n[nH]cc3c2c1 [Example 6, (4-((8-methoxy-2H-pyrazolo[3,4-c]quinolin-4-yl)amino)phenyl)(4-(4-methylpiperazin-1-yl)piperidin-1-yl)methanone] | 10 to 100 | 100 to 1000
Fc1cccc2nc(Nc3ccc(N4CCN(C5CC5)CC4)cc3)c3[nH]ncc3c12 [Example 10, N-(4-(4-cyclopropylpiperazin-1-yl)phenyl)-9-fluoro-3H-pyrazolo[3,4-c]quinolin-4-amine] | 100 to 1000 | 100 to 1000
COc1cccc2nc(Nc3ccc(N4CCC(N5CCN(C)CC5)CC4)cc3)c3[nH]ncc3c12 [Example 21, 9-methoxy-N-(4-(4-(4-methylpiperazin-1-yl)piperidin-1-yl)phenyl)-3H-pyrazolo[3,4-c]quinolin-4-amine] | 10 to 100 | 100 to 1000
COc1ccc2nc(Nc3ccc(CN4CCC(N5CCN(C)CC5)CC4)cc3)c3n[nH]cc3c2c1 [Example 22, 8-methoxy-N-(4-((4-(4-methylpiperazin-1-yl)piperidin-1-yl)methyl)phenyl)-2H-pyrazolo[3,4-c]quinolin-4-amine] | 100 to 1000 | 100 to 1000
CSc1ccc2nc(Nc3ccc(N4CCN(C(C)=O)CC4)cc3)c3[nH]ncc3c2c1 [Example 46, 1-(4-(4-((8-(methylthio)-3H-pyrazolo[3,4-c]quinolin-4-yl)amino)phenyl)piperazin-1-yl)ethan-1-one] | 10 to 100 | 100 to 1000
CSc1ccc2nc(Nc3ccc4c(c3)NC(=O)CC4)c3[nH]ncc3c2c1 [Example 47, 7-((8-(methylthio)-3H-pyrazolo[3,4-c]quinolin-4-yl)amino)-3,4-dihydroquinolin-2(1H)-one] | < 10 | < 10
CSc1ccc2nc(Nc3ccc(CN(C)C)cc3)c3[nH]ncc3c2c1 [Example 48, N-(4-((dimethylamino)methyl)phenyl)-8-(methylthio)-3H-pyrazolo[3,4-c]quinolin-4-amine] | 10 to 100 | 10 to 100
CSc1ccc2nc(Nc3ccc4c(c3)CN(C)C4)c3[nH]ncc3c2c1 [Example 49, N-(2-methylisoindolin-5-yl)-8-(methylthio)-3H-pyrazolo[3,4-c]quinolin-4-amine] | 10 to 100 | 100 to 1000
O=C1CCc2ccc(Nc3nc4c(F)cccc4c4cn[nH]c34)cc2N1 [Example 54, 7-((6-fluoro-3H-pyrazolo[3,4-c]quinolin-4-yl)amino)-3,4-dihydroquinolin-2(1H)-one] |  | 100 to 1000
CS(=O)(=O)c1ccc2nc(Nc3ccc(N4CCOCC4)cc3)c3[nH]ncc3c2c1 [Example 55, 8-(methylsulfonyl)-N-(4-morpholinophenyl)-3H-pyrazolo[3,4-c]quinolin-4-amine] | 10 to 100 | < 10
COc1ccc2nc(Nc3ccc4[nH]c(SC)nc4c3)c3n[nH]cc3c2c1 [Example 56, 8-methoxy-N-(2-(methylthio)-1H-benzo[d]imidazol-5-yl)-2H-pyrazolo[3,4-c]quinolin-4-amine] | 100 to 1000 | 100 to 1000
COc1cccc2nc(Nc3ccc(-c4cnco4)cc3)c3[nH]ncc3c12 [Example 57, 9-methoxy-N-(4-(oxazol-5-yl)phenyl)-3H-pyrazolo[3,4-c]quinolin-4-amine] | 10 to 100 | 100 to 1000
CC(=O)N1CCN(c2ccc(Nc3nc4ccc(S(C)(=O)=O)cc4c4cn[nH]c34)cc2)CC1 [Example 62, 1-(4-(4-((8-(methylsulfonyl)-3H-pyrazolo[3,4-c]quinolin-4-yl)amino)phenyl)piperazin-1-yl)ethan-1-one] | 10 to 100 | < 10
CS(=O)(=O)c1ccc2nc(Nc3ccc(C(=O)N4CCOCC4)cc3)c3[nH]ncc3c2c1 [Example 64, (4-((8-(methylsulfonyl)-3H-pyrazolo[3,4-c]quinolin-4-yl)amino)phenyl)(morpholino)methanone] | 10 to 100 | 10 to 100

SMILES | IC50 (LRRK2) [nM] | IC50 (SYK kinase) [nM]
COc1cccc2nc(Nc3cnn(C4CCOCC4)c3)c3[nH]ncc3c12 [Example 102, 9-methoxy-N-(1-(tetrahydro-2H-pyran-4-yl)-1H-pyrazol-4-yl)-3H-pyrazolo[3,4-c]quinolin-4-amine] |  | 100 to 1000
CN1CCC(n2cc(Nc3nc4ccc(S(C)(=O)=O)cc4c4cn[nH]c34)cn2)CC1 [Example 114, N-(1-(1-methylpiperidin-4-yl)-1H-pyrazol-4-yl)-8-(methylsulfonyl)-3H-pyrazolo[3,4-c]quinolin-4-amine] |  | < 10
CC(=O)N1CCC(n2cc(Nc3nc4ccc(S(C)(=O)=O)cc4c4cn[nH]c34)cn2)CC1 [Example 115, 1-(4-(4-((8-(methylsulfonyl)-3H-pyrazolo[3,4-c]quinolin-4-yl)amino)-1H-pyrazol-1-yl)piperidin-1-yl)ethan-1-one] |  | < 10
COCCn1cc(Nc2nc3cccc(OC)c3c3c[nH]nc23)cn1 [Example 116, 9-methoxy-N-(1-(2-methoxyethyl)-1H-pyrazol-4-yl)-2H-pyrazolo[3,4-c]quinolin-4-amine] |  | 100 to 1000
COc1cccc2nc(Nc3cnn(C4CCN(C(C)=O)CC4)c3)c3[nH]ncc3c12 [Example 117, 1-(4-(4-((9-methoxy-3H-pyrazolo[3,4-c]quinolin-4-yl)amino)-1H-pyrazol-1-yl)piperidin-1-yl)ethan-1-one] |  | 100 to 1000
COc1ccc2nc(Nc3cnn(C4CCN(C)CC4)c3)c3n[nH]cc3c2c1 [Example 151, 8-methoxy-N-(1-(1-methylpiperidin-4-yl)-1H-pyrazol-4-yl)-2H-pyrazolo[3,4-c]quinolin-4-amine] |  | 10 to 100
COc1ccc2nc(Nc3cnn(C4CCN(C(C)=O)CC4)c3)c3n[nH]cc3c2c1 [Example 152, 1-(4-(4-((8-methoxy-2H-pyrazolo[3,4-c]quinolin-4-yl)amino)-1H-pyrazol-1-yl)piperidin-1-yl)ethan-1-one] |  | 10 to 100
COCCn1cc(Nc2nc3ccc(S(C)(=O)=O)cc3c3cn[nH]c23)cn1 [Example 153, N-(1-(2-methoxyethyl)-H-pyrazol-4-yl)-8-(methylsulfonyl)-3H-pyrazolo[3,4-c]quinolin-4-amine] |  | 10 to 100
Cc1c(Nc2nc3ccc(S(C)(=O)=O)cc3c3cn[nH]c23)cnn1C(C)C [Example 218, N-(1-isopropyl-5-methyl-1H-pyrazol-4-yl)-8-(methylsulfonyl)-3H-pyrazolo[3,4-c]quinolin-4-amine] |  | 100 to 1000
COCCn1cc(Nc2nc3ccc(S(C)(=O)=O)cc3c3cn[nH]c23)c(C#N)n1 [Example 248, 1-(2-methoxyethyl)-4-((8-(methylsulfonyl)-3H-pyrazolo[3,4-c]quinolin-4-yl)amino)-1H-pyrazole-3-carbonitrile] |  | 100 to 1000
COc1ccc2nc(Nc3cnn(CCF)c3)c3[nH]ncc3c2c1 [Example 291, N-(1-(2-fluoroethyl)-1H-pyrazol-4-yl)-8-methoxy-3H-pyrazolo[3,4-c]quinolin-4-amine] |  | 100 to 1000
COc1cc(OC)c2nc(Nc3cnn(C(C)C)c3)c3[nH]ncc3c2c1 [Example 294, N-(1-isopropyl-1H-pyrazol-4-yl)-6,8-dimethoxy-3H-pyrazolo[3,4-c]quinolin-4-amine] |  | 100 to 1000
COc1cc(OC)c2nc(Nc3cnn(C4CCN(C(C)(C)C)CC4)c3)c3[nH]ncc3c2c1 [Example 295, N-(1-(1-(tert-butyl)piperidin-4-yl)-1H-pyrazol-4-yl)-6,8-dimethoxy-3H-pyrazolo[3,4-c]quinolin-4-amine] |  | 10 to 100
CS(=O)(=O)c1ccc2nc(Nc3cnn(-c4ccccn4)c3)c3n[nH]cc3c2c1 [Example 341, 8-(methylsulfonyl)-N-(1-(pyridin-2-yl)-1H-pyrazol-4-yl)-2H-pyrazolo[3,4-c]quinolin-4-amine] |  | 100 to 1000
CS(=O)(=O)c1ccc2nc(Nc3ccc(N4CCOCC4)c(C#N)c3)c3n[nH]cc3c2c1 [Example 354, 5-((8-(methylsulfonyl)-2H-pyrazolo[3,4-c]quinolin-4-yl)amino)-2-morpholinobenzonitrile] |  | 10 to 100
Brc1cccc2c1nc(Nc1cnn(C3CCOCC3)c1)c1[nH]ncc12 [Example 355, 6-bromo-N-(1-(tetrahydro-2H-pyran-4-yl)-1H-pyrazol-4-yl)-3H-pyrazolo[3,4-c]quinolin-4-amine] |  | 10 to 100
